Experimental data from patent US9637469B2, “Pyridine derivative” (Teijin Pharma Limited, priority 2012, dated 2017).

The molecules below were run against T1, human URAT1 (Homo sapiens, UniProt Q96S37) (assay: Test for inhibition of uric acid transport using human URAT1-expressing cells). Conditions: HEK 293 cells expressing human URAT1; 14C-labeled uric acid 25 μM; uptake 37° C. for 5 min.
T1 construct: Full-length cDNA of human URAT1 (hURAT1)
T1 sequence (Q96S37 1-553): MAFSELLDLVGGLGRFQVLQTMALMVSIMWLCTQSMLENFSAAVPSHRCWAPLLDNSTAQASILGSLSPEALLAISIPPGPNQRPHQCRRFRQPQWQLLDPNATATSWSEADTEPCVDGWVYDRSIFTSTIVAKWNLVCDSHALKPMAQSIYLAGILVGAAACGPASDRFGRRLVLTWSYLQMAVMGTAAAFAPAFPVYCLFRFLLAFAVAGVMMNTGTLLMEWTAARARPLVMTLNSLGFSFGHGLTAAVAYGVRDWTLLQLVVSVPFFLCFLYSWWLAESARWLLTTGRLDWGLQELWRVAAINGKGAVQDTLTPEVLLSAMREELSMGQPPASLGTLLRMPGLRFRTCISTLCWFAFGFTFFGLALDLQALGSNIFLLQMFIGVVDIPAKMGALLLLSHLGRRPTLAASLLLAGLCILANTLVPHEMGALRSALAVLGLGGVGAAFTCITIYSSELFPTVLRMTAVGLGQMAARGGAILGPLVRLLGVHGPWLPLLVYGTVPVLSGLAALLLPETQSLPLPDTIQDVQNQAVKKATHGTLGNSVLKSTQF
Format: cell-based
Procedure: (1) Preparation of the Test Compound
The test compound was dissolved in DMSO (produced by Sigma) to a concentration of 20 mM and was subsequently used by diluting to desired concentrations.
(2) Test for Inhibition of Uric Acid Transport Using Human URAT1-Expressing Cells;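 further: three stars up to 0.2 µM two stars 0.2-2 µM one star 2-20 µM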
Full-length cDNA of human URAT1 (hURAT1) (produced by OriGene Technologies, Inc., NCBI Reference Sequence: NM 144585) was subcloned into an expression vector, pCMV6-Kan/Neo (produced by OriGene Technologies, Inc.), and hURAT1 gene was transfected into human embryonic kidney-derived cells (HEK 293 cells) by liposome method using Lipofectamine 2000 (produced by Invitrogen Corporation), whereupon HEK 293 cells expressing human URAT1 gene were screened by its Geneticin resistance. By a method similar to the following method, functional expression of human URAT1 gene was confirmed by using transport of ^14C-labeled uric acid into the cells as an index.
The HEK 293 cells expressing human URAT1 were seeded in a 24-well cell culture dish to a density of 3×10^5 cells/mL/well and were cultured in Dulbecco's modified Eagle's medium (D-MEM medium) containing 10% fetal bovine serum at 37° C. for 2 days. Thereafter, the following test for inhibition of uric acid transport was performed.
After the medium was removed by aspiration from each well, the medium was replaced with a solution obtained by substituting NaCl in Hank's Balanced Salt Solution (HBSS) with Na gluconate (hereinafter, HBSS/Na-gluconate) and the cells were preincubated at 37° C. for about 10 minutes. HBSS/Na-gluconate was removed by aspiration and a ^14C-uric acid solution that was warmed at 37° C. in advance containing various concentrations of the Example compound described in (1) and a radioactive ligand (^14C-labeled uric acid; final concentration 25 μM) was added and an uptake reaction was carried out by incubating at 37° C. for 5 min. After the incubation, ^14C-labeled uric acid solution was removed by aspiration and the cells were washed three times with ice-cold HBSS. The HEK 293 cells expressing human URAT1 were lysed in 0.2 mol/L aqueous NaOH (hereafter, the cell sample) and the cell samples were collected. The cell sample and a liquid scintillation liquid, ULTIMA GOLD (produced by PerkinElmer, Inc.) were mixed and the radioactivity was measured by a liquid scintillation counter (Beckman Coulter, Inc.).
The uric acid transport rate of the Example compound at each concentration (% of control uptake) was calculated relative to the radioactivity (radioactivity in human URAT1 expressing HEK 293 cells without addition of the Example compound (DMSO addition)) showing URAT1-specific uric acid transport as 100%, and the concentration (IC50) of the Example compound at which the uric acid transport rate is inhibited by 50% was determined. In addition, the symbols (*, **, and ***) in the table represent the following inhibitory activity values: • IC50≦_ 0.2 μM: *** • 0.2 μM<IC50≦2 μM: ** • 2 μM<IC50≦20 μM: *

Structure (SMILES) | Inhibitory Activity (IC50 of uric acid transport inhibition)
O=C(O)c1ccc(-c2cncc(F)c2)n1Cc1csc2cccc(Cl)c12 [Compound B16, 1-((4-chlorobenzo[b]thiophen-3-yl)methyl)-2-(5-fluoropyridin-3-yl)-1H-pyrrole-5-carboxylic acid] | * * *
CCc1nc(-c2cncc(F)c2)n(Cc2cccc3ccccc23)c1C(=O)O [Compound A148, 4-ethyl-2-(5-fluoropyridin-3-yl)-1-(naphthalen-1-ylmethyl)-1H-imidazole-5-carboxylic acid] | * *
O=C(NS(=O)(=O)C1CC1)c1ccc(-c2cncc(F)c2)n1Cc1cc(Cl)ccc1Cl [Compound B27, N-(cyclopropylsulfonyl)-1-(2,5-dichlorobenzyl)-2-(5-fluoropyridin-3-yl)-1H-pyrrole-5-carboxamide] | * * *
CC(=O)c1cncc(-c2nc(C)c(C(=O)O)n2Cc2cc(Cl)ccc2Cl)c1 [Compound A183, 2-(5-acetylpyridin-3-yl)-1-(2,5-dichlorobenzyl)-4-methyl-1H-imidazole-5-carboxylic acid] | * * *
Cc1nc(Oc2cncc(Cl)c2)n(Cc2cc(Cl)ccc2Cl)c1C(=O)O [Compound A250, 2-((5-chloropyridin-3-yl)oxy)-1-(2,5-dichlorobenzyl)-4-methyl-1H-imidazole-5-carboxylic acid] | * * *
COc1nc(-c2cccnc2)n(Cc2cc(Cl)ccc2Cl)c1C(=O)O [Compound A96, 1-(2,5-dichlorobenzyl)-4-methoxy-2-(pyridin-3-yl)-1H-imidazole-5-carboxylic acid] | * * *
Cc1nc(-c2cncc(Br)c2)n(Cc2cc(Cl)ccc2Cl)c1C(=O)O [Compound A177, 2-(5-bromopyridin-3-yl)-1-(2,5-dichlorobenzyl)-4-methyl-1H-imidazole-5-carboxylic acid] | * * *
CCc1nc(-c2cccnc2)n(Cc2cccc3ccccc23)c1C(=O)O [Compound A10, 4-ethyl-1-(naphthalen-1-ylmethyl)-2-(pyridin-3-yl)-1H-imidazole-5-carboxylic acid] | * *
Cc1nc(-c2cccnc2)n(Cc2ccc(Cl)cc2Cl)c1C(=O)O [Compound A77, 1-(2,4-dichlorobenzyl)-4-methyl-2-(pyridin-3-yl)-1H-imidazole-5-carboxylic acid] | * *
Cc1nc(-c2cncc(C#N)c2)n(Cc2cc(Cl)ccc2Cl)c1C(=O)O [Compound A158, 2-(5-cyanopyridin-3-yl)-1-(2,5-dichlorobenzyl)-4-methyl-1H-imidazole-5-carboxylic acid] | * *
Cc1nc(-c2ccncc2)n(Cc2cc(Cl)ccc2Cl)c1C(=O)O [Compound A244, 1-(2,5-dichlorobenzyl)-4-methyl-2-(pyridin-4-yl)-1H-imidazole-5-carboxylic acid] | * *
O=C(O)c1ccc(-c2cncc(Cl)c2)n1Cc1cccc2ccsc12 [Compound B23, 1-(benzo[b]thiophen-7-ylmethyl)-2-(5-chloropyridin-3-yl)-1H-pyrrole-5-carboxylic acid] | * * *
Cc1nc(-c2cncc([N+](=O)[O-])c2)n(Cc2cc(Cl)ccc2Cl)c1C(=O)O [Compound A167, 1-(2,5-dichlorobenzyl)-4-methyl-2-(5-nitropyridin-3-yl)-1H-imidazole-5-carboxylic acid] | * * *
O=C(NS(=O)(=O)C1CC1)c1ccc(-c2cncc(Cl)c2)n1Cc1cc(Cl)ccc1Cl [Compound B30, 2-(5-chloropyridin-3-yl)-N-(cyclopropylsulfonyl)-1-(2,5-dichlorobenzyl)-1H-pyrrole-5-carboxamide] | * * *

More lines, now with the values ahead:

Inhibitory Activity (IC50 of uric acid transport inhibition) | Structure (SMILES)
* * | O=C(O)c1c(C2CC2)nc(-c2cncc(F)c2)n1Cc1cccc2ccccc12 [Compound A153, 4-cyclopropyl-2-(5-fluoropyridin-3-yl)-1-(naphthalen-1-ylmethyl)-1H-imidazole-5-carboxylic acid]
* * | Cc1nc(-c2cccnc2)n(Cc2cccc(Cl)c2Cl)c1C(=O)O [Compound A70, 1-(2,3-dichlorobenzyl)-4-methyl-2-(pyridin-3-yl)-1H-imidazole-5-carboxylic acid]
* * | CC(C)c1nc(-c2cccnc2)n(Cc2csc3ccccc23)c1C(=O)O [Compound A40, 1-(benzo[b]thiophen-3-ylmethyl)-4-isopropyl-2-(pyridin-3-yl)-1H-imidazole-5-carboxylic acid]
* * | Cc1nc(-c2cccnc2)n(Cc2cc(F)ccc2Cl)c1C(=O)O [Compound A41, 1-(2-chloro-5-fluorobenzyl)-4-methyl-2-(pyridin-3-yl)-1H-imidazole-5-carboxylic acid]
* * | O=C(O)c1c(C2CC2)nc(-c2cccnc2)n1Cc1csc2cccc(Br)c12 [Compound A34, 1-((4-bromobenzo[b]thiophen-3-yl)methyl)-4-cyclopropyl-2-(pyridin-3-yl)-1H-imidazole-5-carboxylic acid]
* * | CC(C)c1nc(-c2cccnc2)n(Cc2cccc3ccsc23)c1C(=O)O [Compound A83, 1-(benzo[b]thiophen-7-ylmethyl)-4-isopropyl-2-(pyridin-3-yl)-1H-imidazole-5-carboxylic acid]
* * | O=C(O)c1c(C2CC2)nc(-c2cccnc2)n1Cc1csc2cccc(Cl)c12 [Compound A33, 1-((4-chlorobenzo[b]thiophen-3-yl)methyl)-4-cyclopropyl-2-(pyridin-3-yl)-1H-imidazole-5-carboxylic acid]

Same assay, conditions: HEK 293 cells expressing human URAT1; 14C-labeled uric acid 25 μM; uptake 37° C. for 5 min; read-out: Inhibitory Activity (IC50 of uric acid transport inhibition)

Structure (SMILES) | IC50
Cc1nc(-c2cccnc2)n(Cc2cc(Cl)ccc2Cl)c1C(=O)NS(C)(=O)=O [Compound A111, 1-(2,5-dichlorobenzyl)-4-methyl-N-(methylsulfonyl)-2-(pyridin-3-yl)-1H-imidazole-5-carboxamide] | 2 to 20 µM
Cc1nc(-c2cccnc2)n(Cc2ccccc2C#N)c1C(=O)O [Compound A64] | 2 to 20 µM
COc1ncccc1-c1nc(C)c(C(=O)O)n1Cc1cccc2ccccc12 [Compound A125] | 2 to 20 µM
Cc1nc(-c2cccnc2)n(Cc2cccc3ccsc23)c1C(=O)NS(=O)(=O)C1CC1 [Compound A116] | 2 to 20 µM
Cc1nc(-c2cncc([S+](C)(=O)[O-])c2)n(Cc2cc(Cl)ccc2Cl)c1C(=O)O [Compound A165] | 2 to 20 µM

Results, then the molecule that gave them:

IC50 | Structure (SMILES)
2 to 20 µM | Cc1nc(-c2cccnc2)n(Cc2ccc(Br)cc2)c1C(=O)O [Compound A56]
2 to 20 µM | O=C(O)c1c(C(F)(F)F)nc(-c2cccnc2)n1Cc1cccc2cccc(Br)c12 [Compound A28]
2 to 20 µM | O=C(O)c1c(C(F)(F)F)nc(-c2cccnc2)n1Cc1csc2cccc(C(F)(F)F)c12 [Compound A32]
